Measurements: patent US10041042B2, “Methods for production and use of substance-loaded erythrocytes (S-IEs) for observation and treatment of microvascular hemodynamics” (Novadaq Technologies ULC, priority 2008, dated 2018)

Legend:
Assay type in all cases: physicochemical
[1] = Near-infrared fluorescence micrographs (40×) of ICG-loaded vs ICG-stained erythrocytes: cell brightness; conditions: FIG. 1C, plasma exposed 20 min to stained erythrocytes
Description: FIGS. 1A-1D are near-infrared fluorescence micrographs at 40× magnification of erythrocytes, comparing the brightness of cells “stained” with ICG (A—stained in 1 mM ICG solution for 30 min. and B—stained in 2 mM ICG solution for 60 min. to cells into which ICG has been loaded through pores in their membranes; C—stained plasma resulting from exposure for 20 min. to the stained erythrocytes from A; D—dialysed in 1 mM ICG solution for 30 min.);
(1) Although many fluorescent dyes, such as ICG dye, do bind to the erythrocyte outer cell membrane, binding is weak and non-covalent, and regardless of the dye concentration and conjugation time, the maximum fluorescence brightness that can be achieved is considerably less than optimum (see FIG. 1). […] (2) Exposure to fluorescence excitation energy for diagnostic purposes must not exceed the safe maximum permissible exposure level for the sensory retina. Since ICG dye is a fairly weak emitter of fluorescence, care must be taken to ensure that the amount of ICG present post-loading is optimal, resulting in maximum fluorescence intensity possible at a given safe excitation energy level. […] Moreover, since ICG is subject to concentration fluorescence quenching—even when inside erythrocytes—the amount of loaded dye must be controlled: too much or too little will not produce the maximum fluorescence. […]

[2] = Infrared fluorescence image of thick and thin layers of ICG with and without Ag colloid; conditions: thick (1 cm) layers, 0.250 mg/mL ICG in HAS with or without 4.684 mg/mL Ag colloid, 805 nm
Description: FIG. 7 is an infrared fluorescence image comparing the fluorescence enhancement effect of silver colloid in 0.05 mg/mL ICG solutions; samples in the left-hand side contain no colloid, while those in the right-hand side contain colloid; samples at the top are in 1-cm thick tubes, while those at the bottom are 100 microns thick;
FIG. 8 is an infrared fluorescence image of the samples of FIG. 7 showing reflection of the 805-nm wavelength light used to stimulate fluorescence; no barrier filter was placed in front of the CCD camera in this case;
The disparity between fluorescence enhancement reported in the experiments made using glass surfaces on which the dye/colloid conjugates were bound with amino groups (30-fold) and those observed in the in vivo angiograms (2- to 3-fold) apparently was due to the fact that the colloid fluorescence-enhancement effect is manifest in very thin layers of the dye/suspension and suppressed in thick ones. In this figure, the thick samples are at the top, and the thin ones at the bottom; 0.250 mg/mL ICG in HAS is on the left, and 0.250 mg/mL ICG in HAS with 4.684 mg/mL Ag colloid on the right. The array of samples was uniformly illuminated with 805-nm wavelength light, and the ICG fluorescence image was captured. […]

[3] = Optimum ICG concentration for fluorescence (concentration quenching)
Excerpt: (1) Although many fluorescent dyes, such as ICG dye, do bind to the erythrocyte outer cell membrane, binding is weak and non-covalent, and regardless of the dye concentration and conjugation time, the maximum fluorescence brightness that can be achieved is considerably less than optimum (see FIG. 1). […] (2) Exposure to fluorescence excitation energy for diagnostic purposes must not exceed the safe maximum permissible exposure level for the sensory retina. Since ICG dye is a fairly weak emitter of fluorescence, care must be taken to ensure that the amount of ICG present post-loading is optimal, resulting in maximum fluorescence intensity possible at a given safe excitation energy level. […] Moreover, since ICG is subject to concentration fluorescence quenching—even when inside erythrocytes—the amount of loaded dye must be controlled: too much or too little will not produce the maximum fluorescence. […] Achieving optimal dye concentration is accomplished by controlling the amount of dye in the solution during dialysis once the pores in the cell membranes open; experimentation has determined the optimum amount to be approximately 1.0 μmol/mL dialysed cell-solution (see FIG. 2). […] This also has the advantage of preventing plasma dye-staining and the associated reduction of contrast between cell fluorescence and background brightness once the cells are re-injected. […]

CC1(C)C(/C=C/C=C/C=C/C=C2\N(CCCCS(=O)(=O)O)c3ccc4ccccc4c3C2(C)C)=[N+](CCCCS(=O)(=O)[O-])c2ccc3ccccc3c21 [ICG, indocyanine green]
affinity of ICG dye molecules: plasma proteins vs erythrocyte outer membrane [1]: greater for plasma proteins than for the erythrocyte outer membrane
fluorescence brightness, thick samples [2]: significantly brighter
optimum concentration of dye molecules in the loaded cells; above that level fluorescence quenching occurs ([3]; ICG inserted into S-IEs): about 0.03 mg/mL
optimum amount of dye in the solution during dialysis ([3]; for maximum fluorescence of loaded erythrocytes): approximately 1.0 μmol/mL dialysed cell-solution
